Laboratory results published in patent publication US11911393B2, “Non-catalytic substrate-selective p38alpha-specific MAPK inhibitors with endothelial-stabilizing and anti-inflammatory activity, and methods of use thereof” (University of Maryland, Baltimore, priority 2016, dated 2024).

Test system: IL-8-directed neutrophil TEM through HMVECLs
Assay: Neutrophil transendothelial migration (TEM) assay
Type: cell-based, human
Settings: 10 μM, HMVECLs preincubated at 39.5° C. for 6 h

C[S+]([O-])c1ccc(-c2nc(-c3ccncc3)c(-c3ccc(F)cc3)[nH]2)cc1 (stereo not shown) [SB203580, reference compound]
reduction of hyperthermia-augmented neutrophil TEM: 84%
